Results from PubChem BioAssay AID248 (DTP/NCI, 2004).
“And” between values parts separate entries of the source, which are not always exact repeats. Equal values may be shown once. Toxic doses and inconclusive results are not listed. No stated cut-off is given here; in the data, active means T/C of 150% or more; inactive means T/C below 125%.

System: L1210 leukemia ip in BDF1 mice, survival T/C
Test: NCI In Vivo Anticancer Drug Screen. Data for tumor model L1210 Leukemia (intraperitoneal) in B6D2F1 (BDF1) mice
Details: endpoint: mean survival time, higher = longer survival
Summary of the method: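 Mice bearing the transplanted tumor received compound or vehicle. Survival of the treated group was divided by that of the vehicle-treated control group to give the ratio.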

[1] = dose: 100.0 mg/kg/injection, schedule: Q01DX001 (ip), vehicle: saline with Tween-80
[2] = dose: 100.0 mg/kg/injection, schedule: Q01DX009 (ip), vehicle: saline with Tween-80
[3] = dose: 100.0 mg/kg/injection, schedule: Q04DX003 (ip), vehicle: saline with Tween-80
[4] = dose: 200.0 mg/kg/injection, schedule: Q01DX001 (ip), vehicle: saline with Tween-80
[5] = dose: 200.0 mg/kg/injection, schedule: Q01DX009 (ip), vehicle: saline with Tween-80
[6] = dose: 200.0 mg/kg/injection, schedule: Q04DX003 (ip), vehicle: saline with Tween-80
[7] = dose: 400.0 mg/kg/injection, schedule: Q01DX009 (ip), vehicle: saline with Tween-80
[8] = dose: 400.0 mg/kg/injection, schedule: Q04DX003 (ip), vehicle: saline with Tween-80
[9] = dose: 100.0 mg/kg/injection, schedule: Q01DX009 (ip), vehicle: Klucel (hydroxypropylcellulose) (HPC)
[10] = dose: 100.0 mg/kg/injection, schedule: Q04DX003 (ip), vehicle: Klucel (hydroxypropylcellulose) (HPC)
[11] = dose: 200.0 mg/kg/injection, schedule: Q01DX009 (ip), vehicle: Klucel (hydroxypropylcellulose) (HPC)
[12] = dose: 200.0 mg/kg/injection, schedule: Q04DX003 (ip), vehicle: Klucel (hydroxypropylcellulose) (HPC)
[13] = dose: 400.0 mg/kg/injection, schedule: Q01DX009 (ip), vehicle: Klucel (hydroxypropylcellulose) (HPC)
[14] = dose: 400.0 mg/kg/injection, schedule: Q04DX003 (ip), vehicle: Klucel (hydroxypropylcellulose) (HPC)
[15] = dose: 200.0 mg/kg/injection, schedule: Q04DX002 (ip), vehicle: Klucel (hydroxypropylcellulose) (HPC)
[16] = dose: 25.0 mg/kg/injection, schedule: Q04DX003 (ip), vehicle: saline
[17] = dose: 50.0 mg/kg/injection, schedule: Q04DX003 (ip), vehicle: saline
[18] = dose: 100.0 mg/kg/injection, schedule: Q04DX003 (ip), vehicle: saline
[19] = dose: 25.0 mg/kg/injection, schedule: Q01DX009 (ip), vehicle: saline
[20] = dose: 50.0 mg/kg/injection, schedule: Q01DX009 (ip), vehicle: saline
[21] = dose: 100.0 mg/kg/injection, schedule: Q01DX009 (ip), vehicle: saline
[22] = dose: 75.0 mg/kg/injection, schedule: Q01DX001 (ip), vehicle: saline
[23] = dose: 150.0 mg/kg/injection, schedule: Q01DX001 (ip), vehicle: saline
[24] = dose: 300.0 mg/kg/injection, schedule: Q01DX001 (ip), vehicle: saline

Measured: T/C

O=C(O)c1c(Br)c(Br)c(Br)c(Br)c1C(=O)O
inactive: dose: 100.0 mg/kg/injection, schedule: Q04DX002 (ip), vehicle: saline 107 % of control | dose: 200.0 mg/kg/injection, schedule: Q04DX002 (ip), vehicle: saline 110 % of control | dose: 400.0 mg/kg/injection, schedule: Q04DX002 (ip), vehicle: saline 103 % of control

COc1ccc(OC)c(C(Nc2ccc3cn[nH]c3c2)P(=O)(c2ccccc2)c2ccccc2)c1 (stereo not drawn)
inactive: [1] 93 % of control | [2] 95 % of control | dose: 100.0 mg/kg/injection, schedule: Q04DX002 (ip), vehicle: saline with Tween-80 103 % of control and 104 % of control | [3] 96 % of control | [4] 103 % of control | [5] 95 % of control | dose: 200.0 mg/kg/injection, schedule: Q04DX002 (ip), vehicle: saline with Tween-80 95 % of control and 90 % of control | [6] 95 % of control | dose: 400.0 mg/kg/injection, schedule: Q01DX001 (ip), vehicle: saline with Tween-80 92 % of control | [7] 97 % of control | dose: 400.0 mg/kg/injection, schedule: Q04DX002 (ip), vehicle: saline with Tween-80 93 % of control | [8] 92 % of control

O=C(C[P+](c1ccccc1)(c1ccccc1)c1ccccc1)c1ccc(Br)cc1
inactive: dose: 50.0 mg/kg/injection, schedule: Q01DX001 (ip), vehicle: other 100 % of control | dose: 100.0 mg/kg/injection, schedule: Q01DX001 (ip), vehicle: other 87 % of control | dose: 200.0 mg/kg/injection, schedule: Q01DX001 (ip), vehicle: other 103 % of control | dose: 400.0 mg/kg/injection, schedule: Q01DX001 (ip), vehicle: other 105 % of control

Clc1ccc(-c2cc[s+]s2)cc1
inactive: dose: 12.5 mg/kg/injection, schedule: Q01DX009 (ip), vehicle: water 91 % of control | dose: 25.0 mg/kg/injection, schedule: Q04DX003 (ip), vehicle: water 100 % of control | dose: 50.0 mg/kg/injection, schedule: Q01DX009 (ip), vehicle: water 88 % of control | dose: 50.0 mg/kg/injection, schedule: Q04DX003 (ip), vehicle: water 98 % of control | dose: 100.0 mg/kg/injection, schedule: Q04DX003 (ip), vehicle: water 98 % of control and 92 % of control

CCCC(CCC)NCCOC(=O)c1ccc(N)cc1
inactive: dose: 75.0 mg/kg/injection, schedule: Q01DX001 (ip), vehicle: other 101 % of control

O=C1C(=O)c2ccccc2C(O)=C1CN1CCC1
inactive: [1] 95 % of control | [4] 95 % of control

CC(=O)Nc1ccc2ccccc2c1Br
inactive: [9] 104 % of control | [10] 95 % of control | [11] 103 % of control | [12] 95 % of control | [13] 119 % of control | [14] 95 % of control

N#CC(c1ccc(Cl)cc1)c1ccccn1 (stereo not drawn)
inactive: dose: 75.0 mg/kg/injection, schedule: Q04DX003 (ip), vehicle: other 96 % of control | dose: 150.0 mg/kg/injection, schedule: Q04DX003 (ip), vehicle: other 96 % of control | dose: 300.0 mg/kg/injection, schedule: Q04DX003 (ip), vehicle: other 94 % of control

CC1(C)CCC(C)(C)C(O)C1O (stereo not drawn)
inactive: dose: 100.0 mg/kg/injection, schedule: Q04DX002 (ip), vehicle: Klucel (hydroxypropylcellulose) (HPC) 92 % of control | [15] 105 % of control | dose: 400.0 mg/kg/injection, schedule: Q04DX002 (ip), vehicle: Klucel (hydroxypropylcellulose) (HPC) 118 % of control

OC1CCCC2CCC[N-]C12.OC1CCCC2CCC[N-]C12.[O]=[V][OH] (stereo not drawn)
inactive: dose: 24.0 mg/kg/injection, schedule: Q01DX015 (ip), vehicle: carboxymethylcellulose (CMC) 105 % of control | [16] 93 % of control | dose: 36.0 mg/kg/injection, schedule: Q01DX015 (ip), vehicle: carboxymethylcellulose (CMC) 105 % of control | dose: 50.0 mg/kg/injection, schedule: Q01DX001 (ip), vehicle: saline 100 % of control | [17] 93 % of control | dose: 54.0 mg/kg/injection, schedule: Q01DX015 (ip), vehicle: carboxymethylcellulose (CMC) 102 % of control | [18] 95 % of control

OC(O)(C(F)(F)F)C(F)(F)F
inactive: dose: 12.5 mg/kg/injection, schedule: Q01DX005 (ip), vehicle: saline 108 % of control | dose: 12.5 mg/kg/injection, schedule: Q01DX009 (ip), vehicle: saline 95 % of control | dose: 25.0 mg/kg/injection, schedule: Q01DX005 (ip), vehicle: saline 108 % of control | [19] 104 % of control | dose: 50.0 mg/kg/injection, schedule: Q01DX005 (ip), vehicle: saline 104 % of control | [20] 92 % of control

OCC1OC(CO)(OC2CC3C(O)CC(O)CC3OC2c2cc(O)c(O)c(O)c2)C(O)C1O (stereo not drawn)
inactive: dose: 100.0 mg/kg/injection, schedule: Q01DX001 (ip), vehicle: carboxymethylcellulose (CMC) 103 % of control | dose: 200.0 mg/kg/injection, schedule: Q01DX001 (ip), vehicle: carboxymethylcellulose (CMC) 93 % of control | dose: 400.0 mg/kg/injection, schedule: Q01DX001 (ip), vehicle: carboxymethylcellulose (CMC) 92 % of control

CCOc1ccc(/C=N/NC(=O)c2ccccc2NC(=O)C2CC2)cc1OC
inactive: [2] 100 % of control | [3] 92 % of control | [5] 92 % of control | [6] 95 % of control | [7] 94 % of control | [8] 90 % of control

CN(C)c1ccc(N=Cc2cc[n+](C)cc2)cc1
inactive: [19] 92 % of control | [20] 100 % of control | [18] 87 % of control

CC(N)C(=O)c1ccccc1 (stereo not drawn)
inactive: [20] 97 % of control | [21] 92 % of control

CCOCC(=O)c1c(O)cc(O)cc1O
inactive: [9] 97 % of control | [11] 92 % of control | [13] 101 % of control

COC(=O)C1(C)CCCC2(C)C3CCC4(C)CC3(CCC12)CC4S(=O)(=O)c1ccc(C)cc1 (stereo not drawn)
inactive: dose: 12.5 mg/kg/injection, schedule: Q04DX002 (ip), vehicle: Klucel (hydroxypropylcellulose) (HPC) 100 % of control | dose: 25.0 mg/kg/injection, schedule: Q04DX002 (ip), vehicle: Klucel (hydroxypropylcellulose) (HPC) 89 % of control | dose: 50.0 mg/kg/injection, schedule: Q04DX002 (ip), vehicle: Klucel (hydroxypropylcellulose) (HPC) 95 % of control and 106 % of control | [15] 86 % of control

CC(Br)(CBr)CCC(C)(Br)CBr (stereo not drawn)
inactive: [10] 94 % of control | [12] 96 % of control | [14] 91 % of control

COc1ccc(C(=O)C(C)(CN(C)C)c2ccccc2)cc1 (stereo not drawn)
inactive: [19] 93 % of control | [16] 92 % of control | [20] 100 % of control | [17] 94 % of control | [21] 102 % of control | [18] 93 % of control and 101 % of control

CN=C1CC2CCC(C2)C1(O)c1ccccc1 (stereo not drawn)
inactive: dose: 100.0 mg/kg/injection, schedule: Q01DX001 (ip), vehicle: saline 101 % of control

C=CCNc1ccc(C)cc1
inactive: dose: 50.0 mg/kg/injection, schedule: Q01DX009 (ip), vehicle: other 92 % of control | dose: 100.0 mg/kg/injection, schedule: Q01DX009 (ip), vehicle: other 104 % of control | dose: 100.0 mg/kg/injection, schedule: Q04DX003 (ip), vehicle: other 100 % of control | dose: 200.0 mg/kg/injection, schedule: Q04DX003 (ip), vehicle: other 109 % of control

CC(C)CC(CC(C)C)NC(C)COC(=O)C(c1ccccc1)c1ccccc1 (stereo not drawn)
inactive: [22] 98 % of control | [23] 102 % of control | [24] 100 % of control

CCCCCCCCC1CCCC2C(C)CCC(C)C12 (stereo not drawn)
inactive: [22] 96 % of control | [23] 95 % of control | [24] 104 % of control
